The subject of experiment [1] is Toll-like receptor 4 (Tlr4) mRNA in IEC-6 cells. The experiment in a line: Tlr4 mRNA and microRNA expression in IEC-6 cells treated with I3C. Format: cell-based, rat. As for the experimental part: Rat intestinal epithelial cell line IEC-6 was treated with aryl hydrocarbon receptor (AHR) agonist indole-3-carbinol (13C) for 4 and 6 hours, and then the expression of Toll-like receptor 4 (Tlr4) mRNA and the microRNAs, which have been reported to down-regulate Tlr4 transcription, were quantified, respectively. Referring now to FIG. 22, the mRNA expression of Tlr4 was quantified in IEC-6 cells treated with AHR agonist […] for 6 hours. Data are represented as mean±SEM; *p<0.05 between indicated groups; each dot represents an individual sample. […] Referring now to FIG. 23, the expression of let-7i, miR-223, and miR-146b, which are microRNAs known to inhibit Tlr4 mRNA expression, was quantified in IEC-6 cells treated with AHR agonist […] for 4 hours. Data are represented as mean±SEM; *p<0.05 between indicated groups; each dot represents an individual sample.

The test system of a further experiment is Tlr4 mRNA in the ileum. Description: Ileal Tlr4 mRNA and microRNA expression in neonatal mice given I3C. Type of experiment: in vivo, mouse. Particulars: 7-day-old mice, 25 mg/kg oral gavage, after 24 hours. Here is the method: Neonatal mice at the age of 7 days old were given AHR agonist […] (25 mg/kg) via oral gavage, and the ileal expression of Tlr4 mRNA and microRNAs, which have been reported to down-regulate Tlr4 transcription, were quantified after 24 hours. Referring now to FIG. 24, the mRNA expression of Tlr4 was quantified in the ileum of neonatal mice treated with AHR agonist […]. Data are represented as mean±SEM; *p<0.05 between indicated groups; each dot represents an individual mouse. […] Referring now to FIG. 25, the expression of let-71, miR-223, and miR-146b, which are microRNAs known to inhibit Tlr4 mRNA expression, was quantified in the ileum of neonatal mice treated with AHR agonist […]. Data are represented as mean±SEM; *p<0.05 between indicated groups; each dot represents an individual mouse.

For experiment [2], the system named is TLR4 signaling in the intestinal epithelium. Description: LPS-induced TLR4 signaling and Cypla1 in the intestinal mucosa of mice. Type of experiment: in vivo, mouse.
From the text: In seeking to investigate how AHR signaling attenuates NEC severity, whether AHR activation could limit the degree of TLR4 signaling in the gut was investigated. To do so, enteroids were derived from wild-type mice, which are intestinal cultures containing all cell lineages derived from intestinal crypts, as have been described.

Entries after “also recorded” stand apart in the source; their conditions may differ.

For the compound `OCc1c[nH]c2ccccc12` [I3C, indole-3-carbinol], in experiment [1] (4 hours), the “expression of let-7i” value is “significantly increased”, the “expression of miR-146b” value is “significantly increased” and the “expression of miR-223” value is listed as “significantly increased”. Further, in experiment [1] (6 hours), the “mRNA expression of Tlr4” value was “significantly reduced the expression of Tlr4 mRNA”. Further, in the experiment on Tlr4 mRNA in the ileum, the “expression of let-7i in the ileum” value is “significantly increased”, the “expression of miR-146b in the ileum” value is reported as “significantly increased”, the “expression of miR-223 in the ileum” value is reported as “significantly increased” and the “mRNA expression of Tlr4 in the ileum” value is “significantly reduced the expression of Tlr4 mRNA”. For the same compound, in experiment [2] (intestinal mucosa, I3C, LPS), the “enterocyte apoptosis after TLR4 activation” value was “reversed the deleterious effects of TLR4 activation on enterocyte apoptosis; also recorded: reverses LPS induced apoptosis”; the “mucosal healing / proliferation after TLR4 activation” value is “improved mucosal healing; also recorded: reverses LPS induced apoptosis and impaired proliferation”. For the same compound, in experiment [2] (wild type mice, I3C 50 mg/kg, LPS 5 mg/kg), the “TLR4-induced (LPS) cytokine induction in the intestinal mucosa” value is “reduced TLR4-induced (LPS 5 mg/kg) cytokine induction; also recorded: reduces TLR4 signaling; also recorded: reduces LPS-induced IL-6”. Further, the Cypla1 expression entry in experiment [2] (wild-type mice, I3C 50 mg/kg) was “induced Cypla1 expression; also recorded: increases Cypla1”.
